The text below walks through data of US20240417410A1, “TRICYCLIC COMPOUNDS FOR THE TREATMENT OF CANCER” (Hoffmann-La Roche Inc., priority 2023, published 2024).

Structures are written as SMILES. Like-named read-outs stand apart in the source and are kept apart here.

One data set has as its system human hepatocytes. Briefly: Human hepatocyte stability assay. The data set is classed as in vitro ADME. The conditions noted are these: 1 μM compound, human hepatocytes 1×10^6 cells/mL. As to the method: The hepatocyte stability assay measures the rate of disappearance of a compound from incubations with cryopreserved suspension hepatocytes from human. Positive controls, including Midazolam, Raloxifene and Dextromethorphan, are included in every experiment. Incubations consist of 1 μM tested compound and suspension of human hepatocytes (1×10^6 cells/mL) in supplemented Williams' E Medium with 10% FBS and 0.5% Penicillin-streptomycin. The hepatocyte suspension was incubated with intermittent shaking 900 rpm at 37° C., in a 5% CO2 incubator. The reaction was stopped by adding methanol containing internal standard (2 μM Tolbutamide) at 2, 10, 20, 40, 60 and 120 minutes after compound addition, depletion of the parent compound was monitored by LC-MS/MS analysis.

Data set [1] relates to panel of 119 human cancer cell lines with RAS mutations or amplifications. Put plainly: Cell proliferation analysis, panel of 119 human cancer cell lines. The data set is classed as cell-based. The following applies: RAS addicted cell panels (n=119), read-out: median IC50. The protocol:
The objective of this study was to evaluate the extent and degree to which Example 24 or A122 inhibits cell proliferation in a panel of 119 human cancer cell lines with RAS mutations or amplifications across various histological subtypes.
On Day-1, cells were plated in 384-well round-bottom ultra-low adhesion plates (cat. Corning 3830, with cell density adjusted according to Table 3. The assay plate was then centrifuged at 1000 rpm for 1 minute to ensure even distribution of cells. The plate was incubated at 37° C. in a 5% CO2 atmosphere (It is worth noting that for SW1271 cell plate, it needs to be incubated in an incubator without additional CO2).
On Day 0, Example 24 or A122 was added to each well using a Tecan HP D300E dispenser, with a 3-fold dilution across 9 doses. The final concentration of DMSO was normalized to 0.2%. The assay plate was then centrifuged at 1000 rpm for 1 minute and incubated for 7 days.
On Day 7, CellTiter-Glo (CTG) 3D reagent (Promega G9683) was dispensed into each well of a 384-well plate using a multi-drop dispenser (Thermo Scientific 66413). […]
For data analysis, the XL-fit software (Supplier: ID Business Solutions Ltd., Software version: XL fit 5.0) was utilized. The percentage of inhibition was calculated using the formula: Inhibition %=(Max-Sample value)/(Max-Min)×100. […]

A further data set has as its target CYPA (Homo sapiens (Human), UniProt P62937). Put plainly: CYPA binding analysis by surface plasmon resonance (SPR). The text has this:
The compounds of this invention created a tri-complex involving the active RAS protein and CYPA, necessitating the initial formation of a binary complex through the compound's interaction with CYPA. The stability of the drug-target complex, as indicated by its equilibrium dissociation constant (KD), is thought to influence the length of target engagement, which in turn could lead to a prolonged effect in the washout experiments. Therefore, the objective of this study is to evaluate the binding kinetics of the compounds with CYPA to determine the stability of the CYPA-compound binary complex and to evaluate whether this stability correlates with the sustained inhibition of the target.
All SPR experiments were conducted on a Biacore 8K+ instrument (Cytiva). Recombinant biotinylated CYPA protein with a C-terminal AVI tag was purified and immobilized on flow cell 2 of SA chip (Cytiva, BR100531), with the flow cell 1 as the blank reference. The running buffer was HBS-P+ Buffer (Cytiva, BR100827, 0.01 M HEPES pH 7.4,0.15 M NaCl, 0.05% v/v Surfactant P20), and the flow rate was 10 μL/min. The immobilization level was achieved to about 1800 response units (RU). Compounds were 3-fold serially diluted to 1.5-3333 nM using HBS-P+Buffer with a final DMSO concentration of 1.5%, and then loaded to flow through the chip surface at a rate of 30 μL/min with HBS-P+Buffer containing 1.5% DMSO as the running buffer. Experiments were performed at 25° C. The contact time and dissociation time were set to 60 s and 200 s, respectively. After binding and dissociation of each sample, the chip was regenerated using 1 M NaCl with a short contact time of 19 s at a rate of 60 μL/min. The sensorgrams were analyzed using Biacore Insight Evaluation software with 1:1 kinetics binding model to determine the association rate constant (kon), dissociation rate constant (koff) and equilibrium dissociation constant (KD).

The next data set relates to GP2d. Put plainly: Cell proliferation, CTG 3D, 7 d. It is filed as cell-based. The conditions noted are these: Homo sapiens, KRAS (G12D). An outline of the steps: (§1)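 Day −1, cells plated in low-attachment round-bottom wells and incubated at 37° C in 5% CO2. Day 0, compound dispensed as 9 doses at 3-fold steps with DMSO held at 0.2%. Day 7, CellTiter-Glo 3D added and shaken 30 min before luminescence reading.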

A further data set relates to HS 578T. Briefly: Cell proliferation, CTG 3D, 7 d. The data set is classed as cell-based. The following applies: Homo sapiens, HRAS (p.G12D). An outline of the steps:
as §1

In a further data set the test system is LU99. Briefly: Cell proliferation, CTG 3D, 7 d. The data set is classed as cell-based. The conditions noted are these: Homo sapiens, Lu-99; LU99, KRAS (G12C). The gist of the method:
as §1

A further data set has as its system Mino. Briefly: Cell proliferation, CTG 3D, 7 d. It is filed as cell-based. The following applies: Homo sapiens. The gist of the method: as §1
The subject of the next data set is NCI-H2135. Put plainly: Cell proliferation, CTG 3D, 7 d. The data set is classed as cell-based. The following applies: Homo sapiens. The gist of the method:
as §1

For a further data set, the system named is NCI-H2347. Briefly: Cell proliferation, CTG 3D, 7 d. The conditions noted are these: Homo sapiens. It is filed as cell-based. An outline of the steps: as §1
The subject of a further data set is NCI-H838. Put plainly: Cell proliferation, CTG 3D, 7 d. The following applies: Homo sapiens; NCI-H838, KRAS (WT ampl). It is filed as cell-based. An outline of the steps: as §1
The next data set deals with SK-LU-1. Briefly: Cell proliferation, CTG 3D, 7 d. It is filed as cell-based. The following applies: Homo sapiens; SK-LU-1, KRAS (G12D). An outline of the steps: as §1
In another data set the test system is SK-N-SH. Put plainly: Cell proliferation, CTG 3D, 7 d. The data set is classed as cell-based. The following applies: Homo sapiens. An outline of the steps: as §1
For the next data set, the system named is SNU-387. Put plainly: Cell proliferation, CTG 3D, 7 d. The conditions noted are these: Homo sapiens. It is filed as cell-based. The gist of the method: as §1

Sequence of CYPA (P62937 whole entry): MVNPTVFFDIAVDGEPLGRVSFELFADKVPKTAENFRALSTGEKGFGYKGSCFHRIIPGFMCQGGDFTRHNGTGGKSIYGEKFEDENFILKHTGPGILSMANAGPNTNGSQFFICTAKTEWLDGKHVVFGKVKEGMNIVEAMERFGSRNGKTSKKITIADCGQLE

`CO[C@@H](C)c1ncc(N2CCN(C)CC2)cc1-c1c2c3cc(cc4c3n1CCC4)-c1csc(n1)C[C@H](NC(=O)[C@H]1[C@H](C)[C@@H]1C)C(=O)N1CCC[C@H](N1)C(=O)OCC(C)(C)C2` (atropisomer, axis not shown; (M)) [Example 24, (1r,2R,3S)-N-[(7S,13S)-(20M)-20-[2-[(1S)-1-methoxyethyl]-5-(4-methylpiperazin-1-yl)-3-pyridyl]-17,17-dimethyl-8,14-dioxo-15-oxa-4-thia-9,21,30,31-tetrazahexacyclo[23.3.1.1^2,5.1^9,13.0^19,27.0^21,26]hentriaconta-1 (28),2,5 (31), 19,25 (29),26-hexaen-7-yl]-2,3-dimethyl-cyclopropanecarboxamide]: the “Hepatic clearance (Human)” value in the data set on human hepatocytes is 3.4 mL/min/kg. Moreover, the concentration for half-maximal inhibition (IC50) (usually the concentration that inhibits the measured activity by half) in data set [1] came to 0.95 nM; in the data set on GP2d, 0.63 nM; with HS 578T, 1.7 nM; in the data set with LU99 it was 0.59 nM; in the data set with Mino (Mino, NRAS (p.G13D), read-out: IC50) it was 3.8 nM; in the data set with NCI-H2135 (NCI-H2135, NRAS (p.Q61K), read-out: IC50), 0.71 nM. The IC50 in the data set on NCI-H2347 (NCI-H2347, KRAS (L19F), read-out: IC50) amounted to 2 nM; in the data set on NCI-H838, 100 nM; in the data set on SK-LU-1, 0.5 nM; with SK-N-SH (NRAS (p.Q61K), read-out: IC50), 1000 nM; in the data set on SNU-387 (SNU-387, NRAS (p.Q61K), read-out: IC50) it was 0.43 nM. Besides, the “fold lower KD compared to A122” value at CYPA stood at 2.3 fold. Also, the “fold lower koff compared to A122” value on CYPA was found to be 2.9 fold. The Kd (commonly a measure of binding affinity in units of concentration) at CYPA (SPR, 25° C., immobilized CYPA) worked out at 13 nM. Further, the koff (in general, the rate constant with which the complex falls apart) at CYPA (SPR, 25° C., immobilized CYPA) is 0.019 s⁻¹. In addition, on CYPA (SPR, 25° C., immobilized CYPA), the on-rate constant (kon) (in general, the second-order rate constant of association) amounted to 1.4e+06 M⁻¹ s⁻¹.
On to `CCn1c(-c2cc(N3CCN(C)CC3)cnc2[C@H](C)OC)c2c3cc(ccc31)-c1csc(n1)C[C@H](NC(=O)[C@H]1C[C@@H]1C)C(=O)N1CCC[C@H](N1)C(=O)OCC(C)(C)O2` [Example A122, reference compound], for which the “Hepatic clearance (Human)” value in the data set on human hepatocytes was 9 mL/min/kg. In addition, the IC50 in data set [1] is 1.9 nM; in the data set with GP2d, 0.55 nM; in the data set on HS 578T it was 3.1 nM; in the data set with LU99 it was 0.91 nM; in the data set on Mino (MINO), 1000 nM; in the data set with NCI-H2135 it was 1.2 nM. Further, the concentration for half-maximal inhibition (IC50) in the data set with NCI-H2347 (NCI-H2347) amounted to 4.2 nM; in the data set with NCI-H838 it was 100 nM; in the data set with SK-LU-1, 0.56 nM; with SK-N-SH, 580 nM; in the data set on SNU-387 (SNU-387), 1.1 nM. Besides, the koff at CYPA (SPR, 25° C., immobilized CYPA) is 0.056 s⁻¹. Moreover, the kon on CYPA (SPR, 25° C., immobilized CYPA) is 1.9e+06 M⁻¹ s⁻¹.
